From publication PMC6274167, “ent-Pimarane and ent-Kaurane Diterpenes from Aldama discolor (Asteraceae) and Their Antiprotozoal Activity” (Molecules, 2016)
Entries after “also recorded” stand apart in the source; their conditions may differ. Read-outs that look alike come from different tables or passages of the source.

Experiments:
T.b. brucei = system: T.b. brucei; design: method as in PMID 21843897; details: cited from earlier work
[1] = system: Plasmodium falciparum (intraerythrocytic forms, NF54 IEF strain); test: In vitro activity against Plasmodium falciparum; assay type: cell-based; details: for SI P. falciparum: selectivity index determined with L6 cells
Experimental: (§1) As part of an extensive screening of Asteraceae from the Brazilian “Cerrado”, extracts obtained from the leaves of Aldama discolor with solvents of different polarity (n-hexane (Hex), dichloromethane (DCM), ethyl acetate (EtOAc) and methanol (MeOH)) were tested for in vitro activity against Trypanosoma brucei rhodesiense (bloodstream trypomastigotes), T. cruzi (intracellular amastigotes), Leishmania donovani (axenic amastigotes) and Plasmodium falciparum (intraerythrocytic forms). Each extract was tested at two concentrations, 2 and 10 μ g/mL, for growth inhibitory activity (% GI) against the various parasites.
(§2) In vitro tests for the activity against Trypanosoma brucei rhodesiense (bloodstream trypomastigotes, STIB 900 strain), T. cruzi (amastigotes, Tulahuen C4 strain), Leishmania donovani (amastigotes, MHOM-ET-67/L82 strain), Plasmodium falciparum (intraerythrocytic forms, NF54 IEF strain), as well as for cytotoxicity against mammalian cells (L6-cell-line from rat-skeletal myoblasts) were performed according to established protocols as reported previously, e.g, in [33].

[2] = system: T. cruzi (amastigotes, Tulahuen C4 strain); test: In vitro activity against T. cruzi; assay type: cell-based, Trypanosoma cruzi; details: for IC50: Trypanosoma cruzi, Tulahuen C4 strain, amastigotes, geometric mean of 2 experiments ±SE (values marked a: only one experiment); for SI T. cruzi: selectivity index determined with L6 cells
Experimental: as §1, §2

[3] = Cytotoxicity against mammalian cells; assay type: cell-based, rat
Experimental: as §2

[4] = system: Leishmania donovani (amastigotes, MHOM-ET-67/L82 strain); test: In vitro activity against Leishmania donovani; assay type: cell-based; details: for IC50: Leishmania donovani, MHOM-ET-67/L82 strain, amastigotes, geometric mean of 2 experiments ±SE (values marked a: only one experiment), read-out: IC50 L. donovani; for SI L. donovani: selectivity index determined with L6 cells
Experimental: as §1, §2

P. falciparum K-1 strain = system: P. falciparum K-1 strain; design: method as in PMID 16309313; details: read-out: IC50 antiplasmodial activity; cited from earlier work
[5] = system: Trypanosoma brucei rhodesiense (bloodstream trypomastigotes, STIB 900 strain); test: In vitro activity against Trypanosoma brucei rhodesiense; assay type: cell-based; details: for IC50: Trypanosoma brucei, read-out: IC50 T. b. rhodesiense; for SI T. b. rhodesiense: selectivity index determined with L6 cells
Experimental: as §1, §2

[6] = system: trypomastigote forms of T. cruzi (Y strain); design: method as in PMID 18688888; details: in vitro, read-out: IC50 against trypomastigote forms of T. cruzi; cited from earlier work
erythrocytes = system: erythrocytes; design: method as in PMID 15104493; details: cited from earlier work
T. b. rhodesiense = system: T. b. rhodesiense; design: method as in PMID 24165182; details: in words; cited from earlier work
P. falciparum strain 3D7 = system: P. falciparum strain 3D7; design: method as in PMID 15104493; details: read-out: IC50 in vitro antiplasmodial effect; cited from earlier work
[7] = Plasmodium falciparum, NF54, NF54 strain, intra-erythrocytic stages, geometric mean of 2 experiments ±SE (values marked a: only one experiment), read-out: IC50 P. falciparum
[8] = NF54 strain, intra-erythrocytic stages, geometric mean of 2 experiments ±SE (values marked a: only one experiment), read-out: IC50 P. falciparum
[9] = L6-cell-line from rat-skeletal myoblasts, geometric mean of 2 experiments ±SE, read-out: IC50 L6 Cells (cytotoxicity)
[10] = STIB 900 strain, trypomastigotes, geometric mean of 2 experiments ±SE (values marked a: only one experiment)

For C=C1C(=O)C23CCC4C(C)(C)CCCC4(C)C2C(O)CC1C3 (single isomer, unassigned; ent-16) [11α-Hydroxy-ent-16-kauren-15-one], the SI (T.b. brucei; cytotoxicity determined with a human embryonic cell line (MRC-5)) is listed as 3.2 and the IC50 (T.b. brucei; read-out: IC50 against T.b. brucei) is listed as 0.761 µM.
Work on CCN(CC)CCCC(C)Nc1ccnc2cc(Cl)ccc12 (centres unmarked) [chloroquine, reference compound] yielded an IC50 ([1]; Plasmodium falciparum, NF54, read-out: IC50 P. falciparum) of 0.003 ± 0.001 µM.
For C=CC1(C)CCC2=C(C1)C(=O)CC1C2(C)CCC(O)C1(C)C (single isomer, unassigned; ent-7) [Compound 3, ent-7-oxo-pimara-8,15-diene-3β-ol], the IC50 [2] was 19.4 µM, the “SI T. cruzi” value [2] was 4 and the IC50 [1, 7] was 16.5 ± 4.9 µM. The “SI P. falciparum” value [1] was 4, the IC50 ([3]; rat) was 69.3 ± 10.9 µM and the IC50 [4] was 13.8 µM. For the same compound, the “SI L. donovani” value [4] was 5.
For C=CC1(C)C=C2CCC3C(C)(C)CCC(O)C3(C)C2C(O)C1 (centres unmarked) [1,11-dihydroxypimara-8(14),15-diene], the IC50 (P. falciparum K-1 strain) is given as 9.8 µM.
In the case of C=C1C[C@@]23CC[C@@H]4[C@](C)(CO)[C@H](O)CC[C@@]4(C)[C@@H]2CC[C@@H]1C3 (single isomer, unassigned; ent-3) [Compound 1, ent-3-α-hydroxy-kaur-16-en-18-ol], the IC50 [2] is reported as 55.6 µM, the “SI T. cruzi” value [2] is reported as 1 and the IC50 [1, 8] is reported as 3.5 ± 0.2 µM. For the same compound, the IC50 [1, 7] was 3.54 µM, the “SI P. falciparum” value [1] was 11 and the IC50 [3, 9] was 40.2 ± 5.5 µM. The IC50 [4] was 2.5 ± 1.5 µM, the “SI L. donovani” value [4] was 16 and the IC50 [5, 10] was 20.1 ± 0.5 µM. For the same compound, the “SI T. b. rhodesiense” value [5] was 2.
For C=C[C@@]1(C)CC[C@@H]2[C@](O)(CC[C@@H]3[C@](C)(CO)CCC[C@]32C)C1 (single isomer, unassigned; ent-15) [ent-15-pimarene-8β,19-diol], the IC50 [6] is listed as 116 µM.
In the case of C=CC1(C)CCC2=C(C1)C(=O)CC1C(C)(CO)CCCC21C (single isomer, unassigned; ent-7) [Compound 2, ent-7-oxo-pimara-8,15-diene-18-ol], the IC50 [2] is reported as 15.4 µM, the “SI T. cruzi” value [2] is reported as 3 and the IC50 [1, 8] is reported as 3.8 µM. For the same compound, the IC50 [1, 7] was 3.85 µM, the “SI P. falciparum” value [1] was 13 and the IC50 ([3]; rat) was 48.3 ± 5.9 µM. For the same compound, the IC50 [4] was 18.2 µM, the “SI L. donovani” value [4] was 3 and the IC50 [5, 10] was 24.3 µM. The “SI T. b. rhodesiense” value [5] was 2.
In the case of CCCCCCCCCCCCCCCCOP(=O)([O-])OCC[N+](C)(C)C [miltefosine, reference compound], the IC50 [4] is reported as 0.049 ± 0.001 µM.
For Nc1nc(N)nc(Nc2ccc([As]3SCC(CO)S3)cc2)n1 (centres unmarked) [melarsoprol, reference compound], the IC50 [5] was 0.025 ± 0.0005 µM.
With C=CC1(C)C=C2C(O)CC3C4(C)COC(C4)CC3(C)C2CC1 (stereo not drawn) [Compound 4, ent-2S,4S-2,19-epoxy-pimara-8(14),15-diene-7β-ol] the IC50 [2] was 58.9 µM, the “SI T. cruzi” value [2] was 2 and the IC50 [1, 7] was 16.1 ± 6.1 µM. For the same compound, the “SI P. falciparum” value [1] was 6, the IC50 ([3]; rat) was 101 ± 45.7 µM and the IC50 [4] was 21.9 µM. The “SI L. donovani” value [4] was 5, the IC50 [5, 10] was 47.3 ± 4.1 µM and the “SI T. b. rhodesiense” value [5] was 2.
In the case of C=C[C@]1(C)C=C2CC[C@H]3[C@](C)(CO)[C@@H](O)CC[C@]3(C)[C@H]2CC1 [8(14),15-isopimaradien-3β,19-diol], the effect on erythrocytes (erythrocytes) is given as “induced echinocytosis at low concentrations and caused pronounced cell lysis”.
In the case of COc1cc([C@@H]2c3cc4c(cc3[C@H](O)[C@H]3COC(=O)[C@H]23)OCO4)cc(OC)c1OC [podophyllotoxin, reference compound], the IC50 [3, 9] is reported as 0.008 µM.
For C=C1C(=O)O[C@@H]2/C=C(/CO)C3=CC(=O)[C@@](C)(C[C@@H](OC(=O)/C(C)=C/C)[C@@H]12)O3 [Compound 5, budlein A], the “activity against T. b. rhodesiense in vitro” value (T. b. rhodesiense) is listed as “strong anti-T. b. rhodesiense activity; also recorded: exceptionally strong activity”.
For C=CC1(C)C=C2CCC3C(C)(C)CC(O)C(O)C3(C)C2C(O)C1 (centres unmarked) [1,2,11-trihydroxypimara-8(14),15-diene], the IC50 (P. falciparum K-1 strain) is listed as 27.4 µM.
With O=C(Cn1ccnc1[N+](=O)[O-])NCc1ccccc1 [benznidazole, reference compound] the IC50 [2] was 0.653 ± 0.135 µM.
For C=C[C@@]1(C)CCC2=C(CC[C@H]3C(C)(C)[C@@H](O)CC[C@]23C)C1 [8(9),15-isopimaradien-3β-ol], the IC50 (P. falciparum strain 3D7) is given as 24.5 µM.
In the case of 3β-acetoxy-ent-8(14),15-pimaradiene, the IC50 [6] is given as 149 µM.
